Results taken from US9237996B2, “Glucosyltransferase inhibitor containing epigallocatechin gallate polymer as active ingredient” (priority 2008, dated 2016).

What was measured:
[1] = target: T1, glucosyltransferase B (GTFB) (Streptococcus mutans serotype c, UniProt P08987); experiment: Glucosyltransferase inhibitory activity, turbidity (550 nm) of water-insoluble glucan, rGTFB; type: biochemical; conditions: 37° C. overnight
T1 construct: made in house; host or cells: Escherichia coli XL-2 harboring plasmid pSK6
Method: (§1) The glucosyltransferase inhibitory activity can be measured by using any one of the evaluation methods described in prior-art literatures set forth in Background Art. For example, glucosyltransferase prepared from Streptococcus mutans etc. is added to an aqueous solution containing sucrose, and incubated at about the same temperature (about 37° C.) as in the oral cavity for less than 24 hours, preferably about 16 to 20 hours to enzymatically produce glucan from sucrose. Since glucan is insoluble in water, the turbidity of the resultant reaction solution (for example, turbidity at a wavelength of 550 nm) is measured. In this manner, the yield of glucan can be evaluated. If the yield of glucan low (in other words, turbidity is low), it is said that glucosyltransferase activity is more inhibited than that of the case where the yield of glucan is large (in other words, turbidity is high).
rGTF was prepared by the method described in the paper of M. matsumoto et al, FEMS Microbiology Letters 228 (2003) 73-80. More specifically, Escherichia coli XL-2 strain harboring a plasmid pSK6 having a gene encoding glucosyltransferase B (GTFB) of Streptococcus mutans was subjected to shaking culture performed in Luria Bertani liquid medium containing ampicillin (100 μg/mL) and tetracycline (7.5 μg/mL) at 37° C. for 16 hours. Bacterial cells were collected by centrifugally separating the medium, suspended in a 10 mM phosphate buffer (pH 6.5) previously cooled and crushed by an ultrasonic generator (UD201 type, manufactured by Tomy Seiko Co., Ltd., Tokyo) under ice cooling. After crushed, precipitates were centrifugally removed at 12,000×g for 30 minutes. The resultant supernatant was used as glucosyltransferase B (rGTFB) and put in use in later experiments.
The rGTFB having a specific activity of 503 mU/mg protein and the rGTFC having a specific activity of 6.3 to 22.3 mU/mg protein were used as a mixture. […] Protein was quantified by using the bicinchonine acid method (BCA method) (BCA protein assay kit, manufactured by PIERCE).
(§2) With 2 mL of 0.1M KPB (pH6.0) containing 1% sucrose-containing 0.1% dextran T10, rGTFB or rGTFC (amount corresponding to 15 mU (average value)) obtained in Example 2, and each of the above samples (final concentration: 0.1 mg/mL) were mixed. […] The turbidity (550 nm) of the resultant reaction solution was measured to obtain the yield of glucan insoluble in water. […]
as §2, with “1% sucrose and” for “1% sucrose-containing”, “Example 2” for “Example 2,”, “concentration: 0.05” for “concentration: 0.1”

[2] = target: T2, glucosyltransferase C (GTFC) (Streptococcus mutans serotype c, UniProt P13470); experiment: Glucosyltransferase inhibitory activity, turbidity (550 nm) of water-insoluble glucan, rGTFC; type: biochemical; conditions: 37° C. overnight
T2 construct: made in house; host or cells: Escherichia coli XL-2 harboring a plasmid (printed as pSK6)
Method: as §1
Similarly, recombinant glucosyltransferase C (rGTFC) was prepared by using Escherichia coli XL-2 strain harboring a plasmid pSK6 having a gene encoding glucosyltransferase C (GTFC) of Streptococcus mutans and put in use in later experiments.
The rGTFB having a specific activity of 503 mU/mg protein and the rGTFC having a specific activity of 6.3 to 22.3 mU/mg protein were used as a mixture. The activity 1U represents activity of an enzyme in converting glucose ([…]) derived from sucrose into glucan per minute. Protein was quantified by using the bicinchonine acid method (BCA method) (BCA protein assay kit, manufactured by PIERCE).
(§3) With 2 mL of 0.1M KPB (pH6.0) containing 1% sucrose-containing 0.1% dextran T10, rGTFB or rGTFC (amount corresponding to 15 mU (average value)) obtained in Example 2, and each of the above samples (final concentration: 0.1 mg/mL) were mixed. The mixture was incubated at 37° C. overnight. The turbidity (550 nm) of the resultant reaction solution was measured to obtain the yield of glucan insoluble in water. The lower yield of the glucan insoluble in water (in other words, turbidity is low) means that the activity of glucosyltransferase is more inhibited. Note that the control (cont) shown in the figures represents turbidity in the absence of the aforementioned samples.
as §3, with “1% sucrose and” for “1% sucrose-containing”, “Example 2” for “Example 2,”, “concentration: 0.05” for “concentration: 0.1”, “inhibited. […]” for “inhibited. Note that the control (cont) shown in the figures represents turbidity in the absence of the aforementioned samples.”

[3] = tested on: glucosyltransferase (GTF); experiment: Overall GTF inhibitory activity, conclusion from the rGTFB and rGTFC tests; type: biochemical, Streptococcus mutans; conditions: summary of Examples 3 and 4, GTFB and GTFC
Method: as §3
as §3, with “1% sucrose and” for “1% sucrose-containing”, “Example 2” for “Example 2,”, “concentration: 0.05” for “concentration: 0.1”

[4] = sample final concentration 0.1 mg/mL, FIG. 7
[5] = sample final concentration 0.1 mg/mL, FIG. 8

T1 sequence (P08987 35-1476): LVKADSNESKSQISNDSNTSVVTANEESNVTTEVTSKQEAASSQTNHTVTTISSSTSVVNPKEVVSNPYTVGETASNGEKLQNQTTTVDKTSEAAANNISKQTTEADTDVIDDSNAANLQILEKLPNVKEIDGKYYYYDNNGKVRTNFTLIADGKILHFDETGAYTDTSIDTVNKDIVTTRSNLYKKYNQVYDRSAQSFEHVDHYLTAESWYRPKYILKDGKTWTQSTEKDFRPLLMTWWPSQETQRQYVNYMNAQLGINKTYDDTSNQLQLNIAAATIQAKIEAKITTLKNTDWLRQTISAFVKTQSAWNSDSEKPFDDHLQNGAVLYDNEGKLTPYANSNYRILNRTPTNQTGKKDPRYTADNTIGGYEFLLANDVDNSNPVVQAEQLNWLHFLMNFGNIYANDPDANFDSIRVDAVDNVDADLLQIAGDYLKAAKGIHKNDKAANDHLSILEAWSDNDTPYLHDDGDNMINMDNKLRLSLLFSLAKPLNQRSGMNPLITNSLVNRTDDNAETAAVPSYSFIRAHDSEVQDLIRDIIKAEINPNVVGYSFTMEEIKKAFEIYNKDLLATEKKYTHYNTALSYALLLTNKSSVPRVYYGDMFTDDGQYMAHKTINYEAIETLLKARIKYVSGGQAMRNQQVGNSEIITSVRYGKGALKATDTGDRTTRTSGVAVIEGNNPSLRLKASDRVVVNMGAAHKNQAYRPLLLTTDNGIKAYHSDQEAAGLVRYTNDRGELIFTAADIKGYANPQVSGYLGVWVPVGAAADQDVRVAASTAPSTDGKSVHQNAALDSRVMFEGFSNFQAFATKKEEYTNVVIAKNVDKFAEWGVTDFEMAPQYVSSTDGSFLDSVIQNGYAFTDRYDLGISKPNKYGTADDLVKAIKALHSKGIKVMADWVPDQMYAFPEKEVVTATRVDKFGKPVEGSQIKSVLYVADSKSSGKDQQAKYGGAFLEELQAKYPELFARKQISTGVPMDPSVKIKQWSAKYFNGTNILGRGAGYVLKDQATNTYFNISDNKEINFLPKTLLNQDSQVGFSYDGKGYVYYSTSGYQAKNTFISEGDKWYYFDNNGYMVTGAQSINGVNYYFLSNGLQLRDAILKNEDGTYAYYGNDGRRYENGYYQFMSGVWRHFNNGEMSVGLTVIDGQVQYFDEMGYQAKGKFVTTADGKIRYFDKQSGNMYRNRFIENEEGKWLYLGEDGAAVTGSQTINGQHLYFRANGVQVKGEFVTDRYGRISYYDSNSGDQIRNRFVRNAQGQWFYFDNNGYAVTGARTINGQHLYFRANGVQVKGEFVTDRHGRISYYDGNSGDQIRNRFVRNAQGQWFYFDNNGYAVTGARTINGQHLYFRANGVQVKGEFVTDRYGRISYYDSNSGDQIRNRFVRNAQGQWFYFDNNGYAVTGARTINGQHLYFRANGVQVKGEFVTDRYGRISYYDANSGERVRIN
T2 sequence (P13470 35-1455): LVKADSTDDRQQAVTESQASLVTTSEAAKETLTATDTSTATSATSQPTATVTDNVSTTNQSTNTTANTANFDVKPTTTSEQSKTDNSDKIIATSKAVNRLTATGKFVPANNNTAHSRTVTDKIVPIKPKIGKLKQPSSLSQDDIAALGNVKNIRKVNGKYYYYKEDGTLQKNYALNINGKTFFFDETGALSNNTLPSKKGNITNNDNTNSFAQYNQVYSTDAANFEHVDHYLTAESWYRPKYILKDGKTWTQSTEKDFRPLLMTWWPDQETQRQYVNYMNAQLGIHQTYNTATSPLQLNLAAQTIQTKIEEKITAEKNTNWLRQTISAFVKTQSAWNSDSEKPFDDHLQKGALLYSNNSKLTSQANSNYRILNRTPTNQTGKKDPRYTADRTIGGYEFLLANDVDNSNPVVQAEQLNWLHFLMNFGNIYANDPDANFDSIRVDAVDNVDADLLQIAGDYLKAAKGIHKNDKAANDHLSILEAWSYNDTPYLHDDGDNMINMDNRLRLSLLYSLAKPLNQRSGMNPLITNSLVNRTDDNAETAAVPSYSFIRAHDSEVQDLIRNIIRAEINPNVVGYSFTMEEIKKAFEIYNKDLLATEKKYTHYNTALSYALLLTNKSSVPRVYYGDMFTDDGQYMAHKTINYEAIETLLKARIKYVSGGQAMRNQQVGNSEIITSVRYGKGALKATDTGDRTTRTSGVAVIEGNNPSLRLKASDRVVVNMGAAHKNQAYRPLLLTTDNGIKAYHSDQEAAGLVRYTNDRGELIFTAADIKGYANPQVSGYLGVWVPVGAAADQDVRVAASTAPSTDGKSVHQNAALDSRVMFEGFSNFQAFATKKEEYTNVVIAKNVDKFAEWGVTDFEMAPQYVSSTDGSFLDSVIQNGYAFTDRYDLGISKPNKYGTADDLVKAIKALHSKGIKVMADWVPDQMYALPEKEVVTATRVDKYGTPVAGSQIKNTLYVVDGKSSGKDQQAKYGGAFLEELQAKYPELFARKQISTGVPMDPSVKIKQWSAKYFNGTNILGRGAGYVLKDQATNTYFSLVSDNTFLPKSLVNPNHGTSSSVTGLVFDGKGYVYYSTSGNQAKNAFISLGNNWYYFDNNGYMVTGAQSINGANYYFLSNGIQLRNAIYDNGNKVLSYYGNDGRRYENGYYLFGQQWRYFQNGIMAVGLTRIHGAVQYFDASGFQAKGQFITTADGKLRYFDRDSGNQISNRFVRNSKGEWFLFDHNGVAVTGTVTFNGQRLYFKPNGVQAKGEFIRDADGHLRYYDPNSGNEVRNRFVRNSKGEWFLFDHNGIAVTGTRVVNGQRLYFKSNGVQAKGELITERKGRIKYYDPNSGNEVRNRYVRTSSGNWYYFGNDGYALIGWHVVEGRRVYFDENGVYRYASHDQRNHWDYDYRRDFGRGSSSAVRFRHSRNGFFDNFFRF

## O=C(O[C@@H]1Cc2c(O)cc(O)c(Cc3c(O)cc(O)c4c3O[C@H](c3cc(O)c(O)c(O)c3)[C@H](OC(=O)c3cc(O)c(O)c(O)c3)C4)c2O[C@@H]1c1cc(O)c(O)c(O)c1)c1cc(O)c(O)c(O)c1 [OHBF-A, oolong homobisflavan-A]
[1]; [4]
  effect on the activity of GTFB (yield of water-insoluble glucan, turbidity): inhibits
[2]; [5]
  effect on the activity of GTFC (yield of water-insoluble glucan, turbidity): slightly enhances

## O=C(O[C@@H]1Cc2c(cc(O)c(Cc3c(O)cc(O)c4c3O[C@H](c3cc(O)c(O)c(O)c3)[C@H](OC(=O)c3cc(O)c(O)c(O)c3)C4)c2O)O[C@@H]1c1cc(O)c(O)c(O)c1)c1cc(O)c(O)c(O)c1 [OHBF-B, oolong homobisflavan-B]
[1]; [4]
  effect on the activity of GTFB (yield of water-insoluble glucan, turbidity): inhibit
[2]; [5]
  effect on the activity of GTFC (yield of water-insoluble glucan, turbidity): inhibit
[3]
  GTF inhibitory activity (overall): high

## O=C(O[C@@H]1Cc2c(O)cc(O)c(Cc3c(O)c(Cc4c(O)c(Cc5c(O)cc(O)c6c5O[C@H](c5cc(O)c(O)c(O)c5)[C@H](OC(=O)c5cc(O)c(O)c(O)c5)C6)c(O)c5c4O[C@H](c4cc(O)c(O)c(O)c4)[C@H](OC(=O)c4cc(O)c(O)c(O)c4)C5)c4c(c3O)C[C@@H](OC(=O)c3cc(O)c(O)c(O)c3)[C@@H](c3cc(O)c(O)c(O)c3)O4)c2O[C@@H]1c1cc(O)c(O)c(O)c1)c1cc(O)c(O)c(O)c1 [OHBF-Tet-2, oolong homobisflavan-tetramer-2]
[1]; sample final concentration 0.05 mg/mL, FIG. 9
  effect on the activity of GTFB (yield of water-insoluble glucan, turbidity): significant inhibitory effect on GTFB was not confirmed
[2]; sample final concentration 0.05 mg/mL, FIG. 10
  effect on the activity of GTFC (yield of water-insoluble glucan, turbidity): slightly inhibited

## O=C(O[C@@H]1Cc2c(O)cc(O)cc2O[C@@H]1c1cc(O)c(O)c(O)c1-c1c([C@H]2Oc3cc(O)cc(O)c3C[C@H]2OC(=O)c2cc(O)c(O)c(O)c2)cc(O)c(O)c1O)c1cc(O)c(O)c(O)c1 [TSN-A, theasinensin A, reference compound]
[1]; [4]
  effect on the activity of GTFB (yield of water-insoluble glucan, turbidity): substantially no effect
[2]; [5]
  effect on the activity of GTFC (yield of water-insoluble glucan, turbidity): extremely enhances
